Patent US20240101535A1, “DIHYDROISOQUINOLINONE DERIVATIVE AND APPLICATION THEREOF” (ETERN BIOPHARMA (SHANGHAI) CO., LTD., priority 2020, published 2024)
Structures can show the parent of a compound that is named as a salt. Where two headings read alike, the source gives them in different places.

Key:
[1] = system: MV4-11 cells; assay: MV4-11 cell proliferation inhibition experiment (CellTiter-Glo); assay type: cell-based; conditions: 6 days, read-out: cell proliferation inhibitory activity
Protocol: Test Example 2: MV4-11 Cell (ATCC: CRL-9591) Proliferation Inhibition Experiment
ATP in living cells was quantitatively detected by CellTiter-Glo (Promega-G7573) Luminescence Cell Viability Assay Kit to determine the effect of the compounds to be tested on cell proliferation. • Step 1: MV4-11 cells were seeded in 96-well plates (Greiner-655098) at a density of 1,500 cells per well with a volume of 140 μL per well; Cell culture medium components included RPM11640 (Gibco-A10491-01)+10% FBS (Gibco-10099-141C)+1% Penicillin-Streptomycin (5,000 U/mL, Gibco-15070-063). • Step 2: On the day of cell seeding, the cells were treated with the compound to be tested. The compound to be tested was diluted with a 3-fold gradient, and a total of 9 concentration gradients were set. DMSO (Sigma, D2650) with 0.5% final concentration or a DMSO solution containing the compound to be tested was added per well with 2 or 3 replicate wells at each concentration point. The plates were incubated at 37° C. in a 5% CO2 incubator (Thermo Scientific Steri-Cycle 371) for 6 days. • Step 3: The cell viability in the control and treatment groups was detected with CellTiter-Glo Luminescent Cell Viability Assay Kit. 50 μL of CellTiter-Glo was added per well, mixed well, and incubated for 15 min at room temperature protected from light. According to the kit instructions, the chemiluminescence signal was read using a multifunctional microplate reader (EnVision, PerkinElmer).
The inhibition percentage (%) of the compound at each concentration point was calculated by the following formula:
Inhibition Percentage (%)=(1−signal value of the group treated with the compound/signal value of the group treated with DMSO)*100.
The value of cell proliferation semi-inhibitory concentration IC50 was calculated using GraphPad Prism software, and the results are shown in Table 2.

[2] = target: WDR5 protein (22-334aa) with MLL1 polypeptide (3672-3773aa) (Homo sapiens, UniProt P61964); assay: WDR5-MLL PPI inhibitory activity test (HTRF); assay type: binding; conditions: His-tagged WDR5 and biotin-tagged MLL1 polypeptide
Excerpt: Test Example 1: WDR5-MLL PPI Inhibitory Activity Test
Effect of the compounds on WDR5 (WD Repeat Domain 5) and MLL1 (mixed-lineage leukemia 1) peptides at molecular level.
The effect of the compound on the interaction of WDR5 protein (22-334aa) with MLL1 polypeptide (3672-3773aa) was detected by HTRF (Homogeneous Time-Resolved Fluorescence) technology. When the N-terminal His-tagged WDR5 recognized by the Anti-6His-Eu cryptate donor interacts with the biotin-tagged MLL1 polypeptide recognized by the streptavidin-APC receptor, the donor and acceptor are pulled close enough to produce fluorescence resonance energy transfer (FRET). […] Therefore, the decrease in FRET signal can reflect the compound's inhibition on the interaction of WDR5 with MLL1 polypeptide.
The compound to be tested was diluted 3-fold with DMSO. […] Then the compound was diluted with reaction buffer (25 mM HEPES pH=7.5, 100 mM NaCl, 0.05% Tween 20) to control the final concentration of DMSO at 0.5%. In a 384-well plate, 1 μL of compound and 3 μL of 42 nM WDR5 protein were added, centrifuged at 1000 rpm for 1 min, incubated at room temperature for 60 min, followed by adding 3 μL of 333 nM MLL1 polypeptide with incubation at room temperature for 10 min, and followed by adding 3 μL of a mixed liquid of Anti-6His-Eu cryptate and streptavidin-APC with centrifugation at 1000 rpm for 1 mi and incubation at room temperature protected from light for 60 min, using a multifunction microplate reader (EnVision®2105) to read the signal. The following controls were set up per plate: control group (1 μL with 5% DMSO reaction buffer, 3 μL of 42 nM WDR5, 3 μL of MLL1 polypeptide, 3 μL of Anti-6His-Eu cryptate and streptavidin-APC). Blank group (1 μL reaction buffer with 5% DMSO, 3 μL reaction buffer, 3 μL MLL1 polypeptide, 3 μL Anti-6His-Eu cryptate and streptavidin-APC). The test data was calculated according to the signal ratio of two beams of fluorescence at different wavelengths: (665 nm signal/620 nm signal)*10000. […] The IC50 value was calculated using XLfit software.

An IC50 ([1]; Homo sapiens, 144 h) of under 50 nM and an IC50 [2] of under 20 nM were found for `CNc1nccn1Cc1cc(CN(C)C)c2c(c1)C(=O)N(C(C)c1ccc(F)c(OC)c1)CC21CCC1` (stereo not shown) [Compound 107, 5′-((dimethylamino)methyl)-2′-(1-(4-fluoro-3-methoxyphenyl)ethyl)-7′-((2-(methylamino)-1H-imidazol-1-yl)methyl)-2′,3′-dihydro-1′H-spiro[cyclobutan-1,4′-isoquinoline]-1′-one] in this work.
An IC50 ([1]; Homo sapiens, 144 h) of 50 to 200 nM and an IC50 [2] of under 20 nM were found for `CCOc1cc([C@H](C)N2C[C@@]3(CC3(F)F)c3c(CN4CCN(C)CC4)cc(Cn4ccnc4NC)cc3C2=O)ncc1F` (single isomer, unassigned) [Compound 92, 2′-(-1-(4-ethoxy-5-fluoropyridine-2-yl)ethyl)-2,2-difluoro-7′-((2-(methylamino)-1H-imidazol-1-yl)methyl)-5′-((4-methylpiperazin-1-yl)methyl)-2′,3′-dihydro-1′H-spiro[cyclopropan-1,4′-isoquinoline]-1′-one formate salt] in this work.
An IC50 ([1]; Homo sapiens, 144 h) of under 50 nM and an IC50 [2] of under 20 nM were found for `CNc1nccn1Cc1cc(CN(C)C)c2c(c1)C(=O)N([C@@H](C)c1cc(OC)c(F)cn1)CC21CC1` [Compound 5] in this work.
An IC50 ([1]; Homo sapiens, 144 h) of under 50 nM and an IC50 [2] of under 20 nM were found for `CCOc1cc([C@H](C)N2CC3(CCC3)c3c(CN4CC(F)(F)C4)cc(Cn4ccnc4NC)cc3C2=O)ncc1C#N` [Compound 79, (S)-6-(1-(5′-((3,3-difluoroazetidinyl-1-yl)methyl)-7′-((2-(methylamino)-1H-imidazol-1-yl)methyl)-1′-one-1′H-spiro[cyclobutan-1,4′-isoquinoline]-2′(3′H)-yl)ethyl)-4-ethoxynicotinonitrile] in this work.
An IC50 ([1]; Homo sapiens, 144 h) of under 50 nM and an IC50 [2] of under 20 nM were found for `CCOc1cc([C@H](C)N2CC3(CC3)c3c(CN(C)C)cc(Cn4ccnc4NC)cc3C2=O)ncc1C#N` [Compound 3] in this work.
An IC50 ([1]; Homo sapiens, 144 h) of under 50 nM and an IC50 [2] of under 20 nM were found for `CCOc1cc([C@H](C)N2CC3(CCCC3)c3c(CN(C)C)cc(Cn4ccnc4NC)cc3C2=O)ncc1F` [Compound 19, (S)-5′-((dimethylamino)methyl)-2′-(1-(4-ethoxy-5-fluoropyridine-2-yl)ethyl)-7′-((2-(methylamino)-1H-imidazol-1-yl)methyl)-2′,3′-dihydro-1′H-spiro[cyclopentan-1,4′-isoquinoline]-1′-one] in this work.
An IC50 ([1]; Homo sapiens, 144 h) of under 50 nM and an IC50 [2] of under 20 nM were found for `[2H]C([2H])([2H])C([2H])([2H])Oc1cc(C(C)N2CC3(CCC3)c3c(CN(C)C)cc(Cn4ccnc4NC)cc3C2=O)ncc1C#N` (stereo not shown) [Compound 111, 6-(1-(5′-((dimethylamino)methyl)-7′-((2-(methylamino)-1H-imidazol-1-yl)methyl)-1′-oxo-1′H-spiro[cyclobutan-1,4′-isoquinoline]-2′(3′H)-yl)ethyl)-4-(ethoxy-d5)nicotinonitrile] in this work.
An IC50 ([1]; Homo sapiens, 144 h) of 50 to 200 nM and an IC50 [2] of under 20 nM were found for `CCOc1cc([C@H](C)N2CC3(CC3)c3c(CN(CC)CC)cc(Cn4ccnc4NC)cc3C2=O)ncc1F` [Compound 10, (S)-5′-(diethylamino)methyl)-2′-(1-(4-ethoxy-5-fluoropyridine-2-ylethyl)-7′-((2-(methylamino)-1H-imidazol-1-yl)methyl)-2′,3′-dihydro-1′H-spiro[cyclopropan-1,4′-isoquinoline]-1′-one] in this work.
An IC50 ([1]; Homo sapiens, 144 h) of under 50 nM and an IC50 [2] of under 20 nM were found for `CCOc1cc(CN2CC3(CCC3)c3c(CN4CCN(C)CC4)cc(Cn4ccnc4NC)cc3C2=O)nn1C` [Compound 87, 2′-((5-ethoxy-1-methyl-1H-pyrazole-3-yl)methyl)-7′-((2-(methylamino)-1H-imidazol-1-yl)methyl)-5′-((4-methylpiperazin-1-yl)methyl)-2′,3′-dihydro-1′H-spiro[cyclobutan-1,4′-isoquinoline]-1′-one] in this work.
An IC50 ([1]; Homo sapiens, 144 h) of under 50 nM and an IC50 [2] of under 20 nM were found for `CCOc1cc([C@H](C)N2CC3(CCC3)c3c(CN4CC[C@@H](O)C4)cc(Cn4ccnc4NC)cc3C2=O)ncc1F` [Compound 84, 2′-((S)-1-(4-ethoxy-5-fluoropyridine-2-yl)ethyl)-5′-(((R)-3hydroxylpyrrolidin-1-yl)methyl)-7′-((2-(methylamino)-1H-imidazol-1-yl)methyl)-2′,3′-dihydro-1′H-spiro[cyclobutyl-1,4′-isoquinoline]-1′-one] in this work.
An IC50 ([1]; Homo sapiens, 144 h) of 50 to 200 nM and an IC50 [2] of under 20 nM were found for `CCOc1cc([C@H](C)N2CC3(CC3)c3c(CN4CCOCC4)cc(Cn4ccnc4NC)cc3C2=O)ncc1F` [Compound 8] in this work.
An IC50 ([1]; Homo sapiens, 144 h) of under 50 nM and an IC50 [2] of under 20 nM were found for `[2H]C(C)(c1cc(OCC)c(C#N)cn1)N1CC2(CCC2)c2c(CN(C)C)cc(Cn3ccnc3NC)cc2C1=O` (stereo not shown) [Compound 101] in this work.
An IC50 ([1]; Homo sapiens, 144 h) of under 50 nM and an IC50 [2] of under 20 nM were found for `CCOc1cc([C@H](C)N2CC3(CC3)c3c(CN4CC(F)(F)C4)cc(Cn4ccnc4NC)cc3C2=O)ncc1C#N` [Compound 67, (S)-6-(1-(5′-((3,3-difluoroazetidinyl-1-yl)methyl)-7′-((2-(methylamino)-1H-imidazol-1-yl)methyl)-1′-one-1′H-spiro[cyclopropan-1,4′-isoquinoline]-2′(3′H)-yl)ethyl)-4-ethoxynicotinonitrile] in this work.
An IC50 ([1]; Homo sapiens, 144 h) of 50 to 200 nM and an IC50 [2] of under 20 nM were found for `CCOc1cc([C@H](C)N2CC3(CC3)c3c(CN4CC(F)(F)C4)cc(Cn4ccnc4NC)cc3C2=O)ncc1F` [Compound 68, (S)-5′-((3,3-difluoroazetidinyl-1-yl)methyl)-2′-(1-(4-ethoxy-5-fluoropyridine-2-yl)ethyl)-7′-((2-(methylamino)-1H-imidazol-1-yl)methyl)-2′,3′-dihydro-1′H-spiro[cyclopropan-1,4′-isoquinoline]-1′-one] in this work.
An IC50 ([1]; Homo sapiens, 144 h) of 50 to 200 nM and an IC50 [2] of under 20 nM were found for `CCOc1cc([C@H](C)N2CC3(CC(F)(F)C3)c3c(CN(C)C)cc(Cn4ccnc4NC)cc3C2=O)ncc1F` [Compound 98] in this work.
An IC50 ([1]; Homo sapiens, 144 h) of under 50 nM and an IC50 [2] of under 20 nM were found for `CCOc1cc(CN2CC3(CC3)c3c(CN4CCN(C)CC4)cc(Cn4ccnc4NC)cc3C2=O)nn1C` [Compound 66, 2′-((5-ethoxy-1-methyl-1H-pyrazole-3-yl)methyl)-7′-((2-(methylamino)-1H-imidazol-1-yl)methyl)-5′-((4-methylpiperazin-1-yl)methyl)-2′,3′-dihydro-1′H-spiro[cyclopropan-1,4′-isoquinoline]-1′-one] in this work.
An IC50 ([1]; Homo sapiens, 144 h) of under 50 nM and an IC50 [2] of under 20 nM were found for `CCOc1cc([C@@H](C)N2C[C@@]3(CC3(F)F)c3c(CN4CCN(C)CC4)cc(Cn4ccnc4NC)cc3C2=O)ncc1F` (stereo in doubt) [Compound 93, 2′-(-1-(4-ethoxy-5-fluoropyridine-2-yl)ethyl)-2,2-difluoro-7′-((2-(methylamino)-1H-imidazol-1-yl)methyl)-5′-((4-methylpiperazin-1-yl)methyl)-2′,3′-dihydro-1′H-spiro[cyclopropan-1,4′-isoquinoline]-1′-one formate salt] in this work.
An IC50 ([1]; Homo sapiens, 144 h) of 50 to 200 nM and an IC50 [2] of under 20 nM were found for `CNc1nccn1Cc1cc(CN(C)C)c2c(c1)C(=O)N([C@@H](C)c1cc(OC(F)F)c(F)cn1)CC21CC1` [Compound 55] in this work.
An IC50 ([1]; Homo sapiens, 144 h) of under 50 nM and an IC50 [2] of under 20 nM were found for `CCOc1cc([C@H](C)N2CC3(CC3)c3c(CN4CCOCC4)cc(Cn4ccnc4NC)cc3C2=O)ncc1C#N` [Compound 59] in this work.
An IC50 [1] of under 50 nM and an IC50 [2] of under 20 nM were found for “(S)-4-ethoxy-6-(1-(7′-((2-(methylamino)-1H-imidazol-1-yl)methyl)-5′-(morpholinomethyl)-1′-one-1′H-spiro[cyclopropan-1,4′-isoquinoline]-2′(3′H)-yl)ethyl)nicotinonitrile [Compound 60]” in this work.
